According to patent US10670605B2, “Cysteine reactive probes and uses thereof” (The Scripps Research Institute, priority 2015, dated 2020):
Counter-ions that a name gives are not always drawn.

Legend:
Assay in all cases: isoTOP-ABPP of compound-treated primary human T cells
Type in all cases: cell-based
[1] = target: Cys residues in primary human T cells (Homo sapiens, UniProt Q7Z6Z7); settings: HUWE1 C3372 (Q7Z6Z7)
[2] = target: T1, Cys residues in primary human T cells (Homo sapiens, UniProt Q96Q11); settings: TRNT1 C373 (Q96Q11)
T1 sequence (Q96Q11 42-434): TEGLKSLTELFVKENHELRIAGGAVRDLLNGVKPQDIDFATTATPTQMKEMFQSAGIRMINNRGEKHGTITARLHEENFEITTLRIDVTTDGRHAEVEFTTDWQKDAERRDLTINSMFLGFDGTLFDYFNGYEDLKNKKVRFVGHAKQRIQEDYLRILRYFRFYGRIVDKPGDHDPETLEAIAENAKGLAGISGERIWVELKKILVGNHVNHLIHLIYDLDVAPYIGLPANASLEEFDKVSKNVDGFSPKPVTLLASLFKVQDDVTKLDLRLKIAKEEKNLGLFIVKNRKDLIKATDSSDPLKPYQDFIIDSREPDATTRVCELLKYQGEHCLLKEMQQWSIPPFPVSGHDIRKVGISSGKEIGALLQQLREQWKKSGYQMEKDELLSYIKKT

[3] = target: T2, Cys residues in primary human T cells (Homo sapiens, UniProt O14920); settings: IKBKB C464 (O14920)
T2 sequence (O14920 1-756): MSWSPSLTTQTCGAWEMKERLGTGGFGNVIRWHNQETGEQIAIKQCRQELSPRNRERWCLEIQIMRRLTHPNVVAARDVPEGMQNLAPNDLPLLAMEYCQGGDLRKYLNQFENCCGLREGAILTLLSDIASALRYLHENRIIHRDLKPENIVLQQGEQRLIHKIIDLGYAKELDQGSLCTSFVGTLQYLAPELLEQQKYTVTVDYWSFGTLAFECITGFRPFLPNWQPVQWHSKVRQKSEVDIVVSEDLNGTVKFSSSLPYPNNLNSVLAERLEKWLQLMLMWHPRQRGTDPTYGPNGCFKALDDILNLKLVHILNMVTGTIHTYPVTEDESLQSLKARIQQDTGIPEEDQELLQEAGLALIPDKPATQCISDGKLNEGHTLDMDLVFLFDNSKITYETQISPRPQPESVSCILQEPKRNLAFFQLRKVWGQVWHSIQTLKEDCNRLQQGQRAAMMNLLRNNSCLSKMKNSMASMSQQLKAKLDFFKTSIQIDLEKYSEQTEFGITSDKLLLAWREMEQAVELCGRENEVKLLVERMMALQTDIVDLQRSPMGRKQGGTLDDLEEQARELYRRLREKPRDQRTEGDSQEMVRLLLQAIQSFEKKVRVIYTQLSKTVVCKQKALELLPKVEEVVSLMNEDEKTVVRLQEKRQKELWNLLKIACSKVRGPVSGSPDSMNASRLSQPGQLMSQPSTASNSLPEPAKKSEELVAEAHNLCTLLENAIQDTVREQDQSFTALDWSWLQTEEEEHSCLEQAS

[4] = target: T3, Cys residues in primary human T cells (Homo sapiens, UniProt P54136); settings: RARS C32 (P54136)
T3 sequence (P54136 1-660): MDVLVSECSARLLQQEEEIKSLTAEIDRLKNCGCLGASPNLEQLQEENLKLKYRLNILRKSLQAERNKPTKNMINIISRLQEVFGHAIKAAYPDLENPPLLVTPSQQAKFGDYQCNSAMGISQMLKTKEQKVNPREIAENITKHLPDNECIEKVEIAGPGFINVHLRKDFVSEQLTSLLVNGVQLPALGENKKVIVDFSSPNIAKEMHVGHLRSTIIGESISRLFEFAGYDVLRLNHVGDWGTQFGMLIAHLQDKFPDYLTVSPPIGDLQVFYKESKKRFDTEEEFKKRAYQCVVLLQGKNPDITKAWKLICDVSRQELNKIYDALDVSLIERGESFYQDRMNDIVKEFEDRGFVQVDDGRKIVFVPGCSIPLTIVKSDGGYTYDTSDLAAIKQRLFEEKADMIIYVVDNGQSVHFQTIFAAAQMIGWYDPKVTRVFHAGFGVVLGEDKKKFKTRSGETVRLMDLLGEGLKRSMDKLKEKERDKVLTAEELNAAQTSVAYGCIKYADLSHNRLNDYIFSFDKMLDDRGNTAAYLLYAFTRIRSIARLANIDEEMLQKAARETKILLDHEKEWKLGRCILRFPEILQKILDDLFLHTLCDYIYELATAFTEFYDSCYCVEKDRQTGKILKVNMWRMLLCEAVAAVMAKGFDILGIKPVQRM

[5] = target: Cys residues in primary human T cells (Homo sapiens, UniProt Q8WXH0); settings: SYNE2 C553 (Q8WXH0)
[6] = target: T4, Cys residues in primary human T cells (Homo sapiens, UniProt Q9NRG0); settings: CHRAC1 C55 (Q9NRG0)
T4 sequence (Q9NRG0 1-131): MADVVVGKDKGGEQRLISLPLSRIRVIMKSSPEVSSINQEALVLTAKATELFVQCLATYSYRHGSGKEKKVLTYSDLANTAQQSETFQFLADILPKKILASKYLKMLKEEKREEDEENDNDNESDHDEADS

[7] = target: Cys residues in primary human T cells (Homo sapiens, UniProt Q8IYQ7); settings: THNSL1 C324 (Q8IYQ7)
[8] = target: Cys residues in primary human T cells (Homo sapiens, UniProt P21580); settings: TNFAIP3 C54 (P21580)
Sequence of Cys residues in primary human T cells (Homo sapiens, UniProt P21580) (P21580 whole entry): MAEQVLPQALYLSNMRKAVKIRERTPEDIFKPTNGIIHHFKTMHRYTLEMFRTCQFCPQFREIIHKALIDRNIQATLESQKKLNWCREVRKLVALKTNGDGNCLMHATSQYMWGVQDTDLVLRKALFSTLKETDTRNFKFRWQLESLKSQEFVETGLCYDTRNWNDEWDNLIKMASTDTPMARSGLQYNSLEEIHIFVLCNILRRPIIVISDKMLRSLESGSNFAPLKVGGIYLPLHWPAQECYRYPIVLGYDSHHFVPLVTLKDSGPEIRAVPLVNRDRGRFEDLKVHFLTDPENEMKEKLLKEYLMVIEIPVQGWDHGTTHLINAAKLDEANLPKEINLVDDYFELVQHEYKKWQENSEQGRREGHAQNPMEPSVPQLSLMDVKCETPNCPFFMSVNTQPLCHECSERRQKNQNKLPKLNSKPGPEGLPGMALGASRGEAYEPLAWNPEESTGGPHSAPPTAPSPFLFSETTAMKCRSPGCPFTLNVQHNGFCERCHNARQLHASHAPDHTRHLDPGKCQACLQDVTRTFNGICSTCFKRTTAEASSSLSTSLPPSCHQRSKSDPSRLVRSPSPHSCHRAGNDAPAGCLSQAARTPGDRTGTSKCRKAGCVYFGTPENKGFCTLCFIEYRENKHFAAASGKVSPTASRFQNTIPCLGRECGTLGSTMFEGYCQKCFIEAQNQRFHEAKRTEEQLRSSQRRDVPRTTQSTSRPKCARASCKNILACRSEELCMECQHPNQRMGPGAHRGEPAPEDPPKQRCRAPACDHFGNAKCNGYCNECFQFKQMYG

Sequence of Cys residues in primary human T cells (Homo sapiens, UniProt Q7Z6Z7) (Q7Z6Z7 whole entry): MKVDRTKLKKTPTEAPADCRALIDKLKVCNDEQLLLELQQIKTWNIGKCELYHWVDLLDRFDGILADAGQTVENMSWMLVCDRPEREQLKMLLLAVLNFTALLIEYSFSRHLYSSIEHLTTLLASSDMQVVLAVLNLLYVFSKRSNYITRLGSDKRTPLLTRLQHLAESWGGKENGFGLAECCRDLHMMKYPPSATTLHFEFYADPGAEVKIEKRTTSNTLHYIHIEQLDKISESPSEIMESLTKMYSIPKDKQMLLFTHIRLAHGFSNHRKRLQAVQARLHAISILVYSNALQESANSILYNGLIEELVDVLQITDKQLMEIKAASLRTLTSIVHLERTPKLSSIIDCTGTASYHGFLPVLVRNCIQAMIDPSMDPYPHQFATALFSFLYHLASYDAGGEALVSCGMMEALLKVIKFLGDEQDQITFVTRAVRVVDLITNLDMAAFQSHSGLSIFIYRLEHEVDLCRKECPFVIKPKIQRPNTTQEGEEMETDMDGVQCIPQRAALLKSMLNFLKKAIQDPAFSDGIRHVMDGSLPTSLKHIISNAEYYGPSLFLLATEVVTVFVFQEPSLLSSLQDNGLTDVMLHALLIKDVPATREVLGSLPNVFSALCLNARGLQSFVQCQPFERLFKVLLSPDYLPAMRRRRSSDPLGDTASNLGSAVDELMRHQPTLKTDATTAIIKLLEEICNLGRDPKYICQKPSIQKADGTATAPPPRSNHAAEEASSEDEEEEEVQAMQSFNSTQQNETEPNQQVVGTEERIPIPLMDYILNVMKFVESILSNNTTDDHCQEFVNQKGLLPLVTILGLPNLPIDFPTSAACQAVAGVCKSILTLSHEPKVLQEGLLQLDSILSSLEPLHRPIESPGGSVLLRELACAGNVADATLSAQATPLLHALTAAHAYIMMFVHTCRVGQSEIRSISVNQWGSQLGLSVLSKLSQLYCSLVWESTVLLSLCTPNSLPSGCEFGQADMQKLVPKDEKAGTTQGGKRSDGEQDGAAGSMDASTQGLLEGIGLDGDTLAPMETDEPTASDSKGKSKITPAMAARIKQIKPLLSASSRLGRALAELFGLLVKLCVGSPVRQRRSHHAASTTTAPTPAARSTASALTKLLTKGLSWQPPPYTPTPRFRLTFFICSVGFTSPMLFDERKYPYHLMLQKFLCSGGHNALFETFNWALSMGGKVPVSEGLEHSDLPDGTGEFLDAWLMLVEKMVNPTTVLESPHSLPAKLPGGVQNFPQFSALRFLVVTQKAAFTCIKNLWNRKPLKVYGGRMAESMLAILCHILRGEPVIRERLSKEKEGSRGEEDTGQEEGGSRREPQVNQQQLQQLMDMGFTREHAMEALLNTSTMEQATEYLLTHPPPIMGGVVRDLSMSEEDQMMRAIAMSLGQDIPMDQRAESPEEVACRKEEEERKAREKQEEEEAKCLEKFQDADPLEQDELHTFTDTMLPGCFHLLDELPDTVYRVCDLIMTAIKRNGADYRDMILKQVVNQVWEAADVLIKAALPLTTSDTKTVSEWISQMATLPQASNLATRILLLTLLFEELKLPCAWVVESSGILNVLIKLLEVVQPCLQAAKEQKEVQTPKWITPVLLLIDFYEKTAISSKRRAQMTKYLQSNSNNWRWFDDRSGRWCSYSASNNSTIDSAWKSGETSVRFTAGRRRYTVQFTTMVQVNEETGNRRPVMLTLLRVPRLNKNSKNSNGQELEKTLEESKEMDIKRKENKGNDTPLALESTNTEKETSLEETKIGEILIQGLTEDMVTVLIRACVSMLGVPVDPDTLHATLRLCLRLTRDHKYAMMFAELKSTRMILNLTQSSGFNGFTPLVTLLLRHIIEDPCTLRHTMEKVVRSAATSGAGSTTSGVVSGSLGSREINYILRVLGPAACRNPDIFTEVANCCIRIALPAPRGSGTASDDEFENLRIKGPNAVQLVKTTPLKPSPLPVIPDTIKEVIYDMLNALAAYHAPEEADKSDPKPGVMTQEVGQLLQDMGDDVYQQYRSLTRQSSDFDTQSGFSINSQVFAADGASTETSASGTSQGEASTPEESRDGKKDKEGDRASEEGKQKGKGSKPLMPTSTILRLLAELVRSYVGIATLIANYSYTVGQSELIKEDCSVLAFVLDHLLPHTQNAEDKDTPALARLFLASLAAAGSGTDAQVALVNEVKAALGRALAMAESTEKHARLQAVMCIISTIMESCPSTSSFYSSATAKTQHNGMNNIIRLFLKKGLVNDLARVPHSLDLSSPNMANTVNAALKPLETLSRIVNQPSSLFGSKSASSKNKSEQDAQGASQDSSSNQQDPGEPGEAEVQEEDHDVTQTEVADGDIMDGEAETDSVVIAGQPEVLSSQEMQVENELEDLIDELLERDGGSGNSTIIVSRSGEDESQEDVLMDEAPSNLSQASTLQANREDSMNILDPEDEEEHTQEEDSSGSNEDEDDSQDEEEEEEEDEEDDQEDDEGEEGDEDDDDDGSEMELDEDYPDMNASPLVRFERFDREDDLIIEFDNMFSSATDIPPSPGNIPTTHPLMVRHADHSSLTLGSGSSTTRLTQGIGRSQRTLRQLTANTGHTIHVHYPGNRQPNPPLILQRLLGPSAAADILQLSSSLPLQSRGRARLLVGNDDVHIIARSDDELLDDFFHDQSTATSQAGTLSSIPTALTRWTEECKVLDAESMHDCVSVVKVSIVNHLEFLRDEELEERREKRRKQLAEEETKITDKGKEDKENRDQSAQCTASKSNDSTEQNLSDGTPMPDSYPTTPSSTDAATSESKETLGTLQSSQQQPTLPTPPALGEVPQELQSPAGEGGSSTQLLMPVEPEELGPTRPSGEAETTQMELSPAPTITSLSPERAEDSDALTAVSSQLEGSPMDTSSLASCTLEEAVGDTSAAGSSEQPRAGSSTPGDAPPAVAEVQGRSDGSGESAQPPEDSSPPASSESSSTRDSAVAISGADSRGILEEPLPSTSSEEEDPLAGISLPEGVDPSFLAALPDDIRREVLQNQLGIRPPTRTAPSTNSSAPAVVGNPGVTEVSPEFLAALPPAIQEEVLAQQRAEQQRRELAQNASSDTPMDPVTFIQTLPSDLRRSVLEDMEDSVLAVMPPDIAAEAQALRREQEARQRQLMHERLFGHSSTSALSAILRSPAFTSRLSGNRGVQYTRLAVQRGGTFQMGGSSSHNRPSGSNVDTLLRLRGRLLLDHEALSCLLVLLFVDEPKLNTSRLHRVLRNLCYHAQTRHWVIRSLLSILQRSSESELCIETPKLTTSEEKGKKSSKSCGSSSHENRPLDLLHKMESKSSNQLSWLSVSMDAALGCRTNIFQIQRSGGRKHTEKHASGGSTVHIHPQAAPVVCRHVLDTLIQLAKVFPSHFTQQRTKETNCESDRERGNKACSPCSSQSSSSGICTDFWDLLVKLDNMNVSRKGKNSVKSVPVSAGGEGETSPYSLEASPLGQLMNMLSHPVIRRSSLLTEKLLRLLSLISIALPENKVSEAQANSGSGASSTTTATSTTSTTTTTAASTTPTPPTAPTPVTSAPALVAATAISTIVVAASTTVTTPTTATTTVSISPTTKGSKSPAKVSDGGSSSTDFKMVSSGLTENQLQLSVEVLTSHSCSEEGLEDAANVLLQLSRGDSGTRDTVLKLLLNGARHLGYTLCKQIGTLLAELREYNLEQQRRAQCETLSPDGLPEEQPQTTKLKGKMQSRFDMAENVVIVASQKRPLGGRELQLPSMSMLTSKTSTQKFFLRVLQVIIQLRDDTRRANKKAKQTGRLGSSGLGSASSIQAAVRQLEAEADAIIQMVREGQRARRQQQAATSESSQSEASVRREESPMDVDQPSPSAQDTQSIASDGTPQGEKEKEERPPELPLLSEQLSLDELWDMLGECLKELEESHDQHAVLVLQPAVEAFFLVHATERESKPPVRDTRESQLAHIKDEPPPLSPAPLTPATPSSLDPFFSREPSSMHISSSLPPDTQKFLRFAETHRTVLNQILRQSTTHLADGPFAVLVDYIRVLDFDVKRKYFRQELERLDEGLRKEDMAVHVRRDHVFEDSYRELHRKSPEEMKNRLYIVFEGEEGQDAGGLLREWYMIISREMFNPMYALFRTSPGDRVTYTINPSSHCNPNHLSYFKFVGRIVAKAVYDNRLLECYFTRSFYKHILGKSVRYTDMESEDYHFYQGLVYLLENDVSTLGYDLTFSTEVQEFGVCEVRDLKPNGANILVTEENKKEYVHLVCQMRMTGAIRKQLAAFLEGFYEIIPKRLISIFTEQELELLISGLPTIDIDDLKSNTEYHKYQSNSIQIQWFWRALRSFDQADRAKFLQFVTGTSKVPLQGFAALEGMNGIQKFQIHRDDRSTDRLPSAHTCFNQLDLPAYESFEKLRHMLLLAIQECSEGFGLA

Compound: COC(=O)/C=C/C(=O)OC [DMF, dimethyl fumarate]
- R value (DMSO/DMF) ([1]; DMF 10 μM 4h): 1.58
- R value (DMSO/DMF) ([1]; DMF 50 μM 1h): 2.28
- R value (DMSO/DMF) ([1]; DMF 50 μM 2h): 4.43
- R value (DMSO/DMF) ([1]; DMF 50 μM 4h): 10.48
- R value (DMSO/DMF) ([2]; DMF 50 μM 1h): 1.97
- R value (DMSO/DMF) ([2]; DMF 50 μM 2h): 2.66
- R value (DMSO/DMF) ([2]; DMF 50 μM 4h): 5.83
- R value (DMSO/DMF) ([3]; DMF 10 μM 4h): 2.59
- R value (DMSO/DMF) ([3]; DMF 50 μM 1h): 3.96
- R value (DMSO/DMF) ([3]; DMF 50 μM 2h): 10.12
- R value (DMSO/DMF) ([3]; DMF 50 μM 4h): 20
- R value (DMSO/DMF) ([4]; DMF 10 μM 4h): 0.62
- R value (DMSO/DMF) ([4]; DMF 25 μM 4h): 4.03
- R value (DMSO/DMF) ([4]; DMF 50 μM 1h): 2.58
- R value (DMSO/DMF) ([4]; DMF 50 μM 2h): 3.58
- R value (DMSO/DMF) ([4]; DMF 50 μM 4h): 5.02
- R value (DMSO/DMF) ([5]; DMF 10 μM 4h): 1.61
- R value (DMSO/DMF) ([5]; DMF 50 μM 2h): 3.29
- R value (DMSO/DMF) ([5]; DMF 50 μM 4h): 4.05
- R value (DMSO/DMF) ([6]; DMF 10 μM 4h): 5.07
- R value (DMSO/DMF) ([6]; DMF 50 μM 1h): 12.59
- R value (DMSO/DMF) ([6]; DMF 50 μM 2h): 11.72
- R value (DMSO/DMF) ([7]; DMF 50 μM 1h): 15.93
- R value (DMSO/DMF) ([7]; DMF 50 μM 2h): 19.36
- R value (DMSO/DMF) ([8]; DMF 10 μM 4h): 1.58
- R value (DMSO/DMF) ([8]; DMF 50 μM 2h): 5.34
